Assay results published in ChEMBL document CHEMBL6127119 (J Med Chem, 2024).
In brackets after ≈: the same amount, converted by molar mass.

Legend:
Assay type in all cases: functional
Conditions in all cases: time 16-24 hrs
Escherichia coli = assay: Antibacterial activity against Escherichia coli AB1157 incubated for 16 to 24 hrs by CLSI based broth microdilution method
Acinetobacter baumannii = assay: Antibacterial activity against Carbapenem-resistant Acinetobacter baumannii clinical isolate incubated for 16 to 24 hrs by CLSI based broth microdilution method
Enterococcus faecium [1] = assay: Antibacterial activity against vancomycin-resistant Enterococcus faecium harboring VanB phenotype incubated for 16 to 24 hrs by CLSI based broth microdilution method
Enterococcus faecium [2] = assay: Antibacterial activity against vancomycin-resistant Enterococcus faecium harboring VanA phenotype incubated for 16 to 24 hrs by CLSI based broth microdilution method
Staphylococcus aureus [3] = assay: Antibacterial activity against vancomycin-intermediate Staphylococcus aureus incubated for 16 to 24 hrs by CLSI based broth microdilution method
Pseudomonas aeruginosa = assay: Antibacterial activity against Pseudomonas aeruginosa PAO1 incubated for 16 to 24 hrs by CLSI based broth microdilution method
Enterococcus faecium [4] = assay: Antibacterial activity against vancomycin-resistant Enterococcus faecium harboring VanM phenotype incubated for 16 to 24 hrs by CLSI based broth microdilution method
Staphylococcus aureus [5] = assay: Antibacterial activity against methicillin-susceptible Staphylococcus aureus incubated for 16 to 24 hrs by CLSI based broth microdilution method
Klebsiella pneumoniae = assay: Antibacterial activity against Klebsiella pneumoniae clinical isolate incubated for 16 to 24 hrs by CLSI based broth microdilution method

With `CC(C)C[C@@H](N)C(=O)N[C@H]1C(=O)N[C@@H](CC(N)=O)C(=O)N[C@H]2C(=O)N[C@H]3C(=O)N[C@H](C(=O)N[C@H](C(=O)O)c4cc(O)c(CNCCCCCCCCNC(=N)N)c(O)c4-c4cc3ccc4O)[C@H](O)c3ccc(c(Cl)c3)Oc3cc2cc(c3O[C@@H]2O[C@H](CO)[C@@H](O)[C@H](O)[C@H]2O[C@H]2C[C@](C)(N)[C@H](O)[C@H](C)O2)Oc2ccc(cc2Cl)[C@H]1O` the MIC (Escherichia coli) was 32 µg/mL (≈ 19.6 µM), the MIC (Acinetobacter baumannii) was 128 µg/mL (≈ 78.4 µM) and the MIC (Enterococcus faecium [1]) was 128 µg/mL (≈ 78.4 µM). It also gave an MIC (Enterococcus faecium [2]) of 64 µg/mL (≈ 39.2 µM), an MIC (Staphylococcus aureus [3]) of 4 µg/mL (≈ 2.45 µM) and an MIC (Pseudomonas aeruginosa) of 128 µg/mL (≈ 78.4 µM). For the same compound, the MIC (Enterococcus faecium [4]) was 32 µg/mL (≈ 19.6 µM), the MIC (Staphylococcus aureus [5]) was 1 µg/mL (≈ 0.612 µM) and the MIC (Klebsiella pneumoniae) was over 128 µg/mL.
`CC(C)C[C@@H](N)C(=O)N[C@H]1C(=O)N[C@@H](CC(N)=O)C(=O)N[C@H]2C(=O)N[C@H]3C(=O)N[C@H](C(=O)N[C@H](C(=O)NCc4ccc(CN)cc4)c4cc(O)cc(O)c4-c4cc3ccc4O)[C@H](O)c3ccc(c(Cl)c3)Oc3cc2cc(c3O[C@@H]2O[C@H](CO)[C@@H](O)[C@H](O)[C@H]2O[C@H]2C[C@](C)(N)[C@H](O)[C@H](C)O2)Oc2ccc(cc2Cl)[C@H]1O` was tested, and the MIC (Escherichia coli) was 16 µg/mL (≈ 10.3 µM), the MIC (Acinetobacter baumannii) was 64 µg/mL (≈ 41.2 µM) and the MIC (Enterococcus faecium [1]) was 64 µg/mL (≈ 41.2 µM). The MIC (Enterococcus faecium [2]) was 128 µg/mL (≈ 82.4 µM), the MIC (Staphylococcus aureus [3]) was 1 µg/mL (≈ 0.644 µM) and the MIC (Enterococcus faecium [4]) was 64 µg/mL (≈ 41.2 µM). For the same compound, the MIC (Staphylococcus aureus [5]) was 1 µg/mL (≈ 0.644 µM).
`CC(C)C[C@H](C(=O)N[C@H]1C(=O)N[C@@H](CC(N)=O)C(=O)N[C@H]2C(=O)N[C@H]3C(=O)N[C@H](C(=O)N[C@H](C(=O)O)c4cc(O)cc(O)c4-c4cc3ccc4O)[C@H](O)c3ccc(c(Cl)c3)Oc3cc2cc(c3O[C@@H]2O[C@H](CO)[C@@H](O)[C@H](O)[C@H]2O[C@H]2C[C@](C)(N)[C@H](O)[C@H](C)O2)Oc2ccc(cc2Cl)[C@H]1O)N(C)Cc1ccc(-c2ccc(CNC(=N)N)cc2)cc1` was tested, and the MIC (Escherichia coli) was over 128 µg/mL, the MIC (Acinetobacter baumannii) was over 128 µg/mL and the MIC (Enterococcus faecium [1]) was 32 µg/mL (≈ 19 µM). The MIC (Enterococcus faecium [2]) was 32 µg/mL (≈ 19 µM), the MIC (Staphylococcus aureus [3]) was 4 µg/mL (≈ 2.37 µM) and the MIC (Enterococcus faecium [4]) was 32 µg/mL (≈ 19 µM). The MIC (Staphylococcus aureus [5]) was 1 µg/mL (≈ 0.593 µM) and the MIC (Klebsiella pneumoniae) was over 128 µg/mL.
Compound `CC(C)C[C@H](C(=O)N[C@H]1C(=O)N[C@@H](CC(N)=O)C(=O)N[C@H]2C(=O)N[C@H]3C(=O)N[C@H](C(=O)N[C@H](C(=O)O)c4cc(O)cc(O)c4-c4cc3ccc4O)[C@H](O)c3ccc(c(Cl)c3)Oc3cc2cc(c3O[C@@H]2O[C@H](CO)[C@@H](O)[C@H](O)[C@H]2O[C@H]2C[C@](C)(N)[C@H](O)[C@H](C)O2)Oc2ccc(cc2Cl)[C@H]1O)N(C)Cc1ccc(-c2ccc(CN)cc2)cc1` has an MIC (Escherichia coli) of over 128 µg/mL, an MIC (Acinetobacter baumannii) of over 128 µg/mL and an MIC (Enterococcus faecium [1]) of 64 µg/mL (≈ 38.9 µM). It also gave an MIC (Enterococcus faecium [2]) of 64 µg/mL (≈ 38.9 µM), an MIC (Staphylococcus aureus [3]) of 8 µg/mL (≈ 4.86 µM) and an MIC (Enterococcus faecium [4]) of 64 µg/mL (≈ 38.9 µM). For the same compound, the MIC (Staphylococcus aureus [5]) was 1 µg/mL (≈ 0.608 µM) and the MIC (Klebsiella pneumoniae) was over 128 µg/mL.
`CC(=O)NC[C@H]1CN(c2ccc(N3CCOCC3)c(F)c2)C(=O)O1` [LINEZOLID] gave an MIC (Escherichia coli) of 128 µg/mL (≈ 379 µM), an MIC (Acinetobacter baumannii) of 128 µg/mL (≈ 379 µM) and an MIC (Enterococcus faecium [1]) of 2 µg/mL (≈ 5.93 µM). It also gave an MIC (Enterococcus faecium [2]) of 1 µg/mL (≈ 2.96 µM), an MIC (Pseudomonas aeruginosa) of over 128 µg/mL and an MIC (Enterococcus faecium [4]) of 2 µg/mL (≈ 5.93 µM). It also gave an MIC (Klebsiella pneumoniae) of over 128 µg/mL.
Compound `CC(C)C[C@@H](N)C(=O)N[C@H]1C(=O)N[C@@H](CC(N)=O)C(=O)N[C@H]2C(=O)N[C@H]3C(=O)N[C@H](C(=O)N[C@H](C(=O)NCc4ccc(CNC(=N)N)cc4)c4cc(O)cc(O)c4-c4cc3ccc4O)[C@H](O)c3ccc(c(Cl)c3)Oc3cc2cc(c3O[C@@H]2O[C@H](CO)[C@@H](O)[C@H](O)[C@H]2O[C@H]2C[C@](C)(N)[C@H](O)[C@H](C)O2)Oc2ccc(cc2Cl)[C@H]1O` has an MIC (Escherichia coli) of 8 µg/mL (≈ 5.01 µM), an MIC (Acinetobacter baumannii) of 32 µg/mL (≈ 20.1 µM) and an MIC (Enterococcus faecium [1]) of 8 µg/mL (≈ 5.01 µM). For the same compound, the MIC (Enterococcus faecium [2]) was 16 µg/mL (≈ 10 µM), the MIC (Staphylococcus aureus [3]) was 1 µg/mL (≈ 0.627 µM) and the MIC (Enterococcus faecium [4]) was 16 µg/mL (≈ 10 µM). For the same compound, the MIC (Staphylococcus aureus [5]) was 0.25 µg/mL (≈ 0.157 µM).
With `CN[C@H](CC(C)C)C(=O)N[C@H]1C(=O)N[C@@H](CC(N)=O)C(=O)N[C@H]2C(=O)N[C@H]3C(=O)N[C@H](C(=O)N[C@H](C(=O)O)c4cc(O)cc(O)c4-c4cc3ccc4O)[C@H](O)c3ccc(c(Cl)c3)Oc3cc2cc(c3O[C@@H]2O[C@H](CO)[C@@H](O)[C@H](O)[C@H]2O[C@H]2C[C@](C)(NCc3ccc(-c4ccc(CN)cc4)cc3)[C@H](O)[C@H](C)O2)Oc2ccc(cc2Cl)[C@H]1O` the MIC (Escherichia coli) was 64 µg/mL (≈ 38.9 µM), the MIC (Acinetobacter baumannii) was 128 µg/mL (≈ 77.8 µM) and the MIC (Enterococcus faecium [1]) was 16 µg/mL (≈ 9.73 µM). It also gave an MIC (Enterococcus faecium [2]) of 16 µg/mL (≈ 9.73 µM), an MIC (Staphylococcus aureus [3]) of 2 µg/mL (≈ 1.22 µM) and an MIC (Staphylococcus aureus [5]) of 0.25 µg/mL (≈ 0.152 µM). For the same compound, the MIC (Klebsiella pneumoniae) was over 128 µg/mL.
